# Results from patent US11453668B2, “JAK inhibitors containing a 4-membered heterocyclic amide” (THERAVANCE BIOPHARMA R&D IP, LLC, priority 2017, dated 2022).
# Key:
# [1] = system: IL-2/anti-CD3 stimulated IFNγ in human PBMCs; test: Inhibition of IL-2/anti-CD3 stimulated IFNγ in human PBMCs; format: cell-based
# Description: The potency of the test compound for inhibition of interleukin-2 (IL-2)/anti-CD3 stimulated interferon gamma (IFNγ) was measured in human peripheral blood mononuclear cells (PBMCs) isolated from human whole blood (Stanford Blood Center). Because IL-2 signals through JAK, this assay provides a measure of JAK cellular potency.
# (1) Human peripheral blood mononuclear cells (PBMC) were isolated from human whole blood of healthy donors using a ficoll gradient. Cells were cultured in a 37° C., 5% CO2 humidified incubator in RPMI (Life Technologies) supplemented with 10% Heat Inactivated Fetal Bovine Serum (FBS, Life Technologies), 2 mM Glutamax (Life Technologies), 25 mM HEPES (Life Technologies) and 1X Pen/Strep (Life
# Technologies). Cells were seeded at 200,000 cells/well in media (50 μL) and cultured for 1 h. Compounds were serially diluted in DMSO and then diluted another 500-fold (to a 2× final assay concentration) in media. […]
# (2) After cytokine stimulation, cells were centrifuged at 500 g for 5 min and supernatants removed and frozen at −80° C. To determine the inhibitory potency of the test compound in response to IL-^2/anti-CD3, supernatant IFNγ concentrations were measured via ELISA (R&D Systems). IC50 values were determined from analysis of the inhibition curves of concentration of IFNγ vs compound concentration. Data are expressed as pIC50 (negative decadic logarithm IC50) values.
# [2] = system: IL-6 stimulated STAT3 phosphorylation in CD3+ T cells; test: Inhibition of IL-6 stimulated pSTAT3 in CD3+ T cells; format: cell-based, human
# Description: A protocol analogous to that of Assay 10 was used to determine the potency of the test compound for inhibition of interleuken-6 (IL-6) stimulated STAT3 phosphorylation. An Alexa Fluor 647 conjugated anti-pSTAT3 antibody (pY705, Clone 4/P, BD Biosciences) was used to detect STAT3 phosphorylation.
# [3] = system: IL-5 mediated survival of human eosinophils; test: IL-5 mediated eosinophil survival assay; format: cell-based
# Description: The potency of the test compound for IL-5 mediated eosinophil survival was measured in human eosinophils isolated from human whole blood (AllCells). Because IL-5 signals through JAK, this assay provides a measure of JAK cellular potency.
# Human eosinophils were isolated from fresh human whole blood (AllCells) of healthy donors. Blood was mixed with 4.5% Dextran (Sigma-Aldrich) in a 0.9% sodium chloride solution (Sigma-Aldrich). Red blood cells were left to sediment for 35 minutes. The leukocyte rich upper layer was removed and layered over Ficoll-Paque (GE Healthcare) and centrifuged at 600 g for 30 minutes. The plasma and mononuclear cell layers were removed before the granulocyte layer was lysed with water to remove any contaminating red blood cells. […] Purity was analyzed using a LSRII flow cytometer (BD Biosciences). […]
# After cytokine stimulation, cells were centrifuged at 300 g for 5 min and washed twice with cold DPBS (Life Technologies). To access viability and apoptosis, cells were incubated with Propidium Iodide (Thermo Fisher Scientific) and APC Annexin V (BD Biosciences) and analyzed using a LSRII flow cytometer (BD Biosciences). IC50 values were determined from analysis of the viability curves of percent cell viability vs compound concentration. Data are expressed as pIC50 (negative decadic logarithm IC50 ) values.
compound,measurement,setting,value
"CCc1cc(O)c(F)cc1-c1ccc2c(-c3nc4c([nH]3)CN(C(C)C)[C@H](C(=O)N3CC(N(C)C)C3)C4)n[nH]c2c1 [Example 2, (S)-(3-(dimethylamino)azetidin-1-yl)(2-(6-(2-ethyl-5-fluoro-4-hydroxyphenyl)-1H-indazol-3-yl)-5-isopropyl-4,5,6,7-tetrahydro-3H-imidazo [4,5-c]pyridin-6-yl)methanone]",inhibition of anti-CD3 and IL-2 induced release of IFNγ from activated human peripheral blood-isolated T cells,[1],inhibit
same,inhibition of IL-6 signaling,[2],inhibit IL-6 signaling
same,inhibition of IL-5 mediated human eosinophil survival,[3],potently inhibit
